How the values were obtained:
[1] = tested on: EGFR mutant NSCLC cell lines HCC4006, HCC827, PC9, MGH707; experiment: Short-term viability assay (CellTiter-Glo, 5 days); type: cell-based
Method: FIG. 1A and FIG. 1B: Dose response curves in EGFR mutant NSCLC cell lines (FIG. 1A: HCC4006 and HCC827 cell lines. FIG. 1B: PC9 and MGH707 cell lines). for Compound B in the presence of DMSO (curves at the top of Figures) or 300nM EGF816 (“Cmpd A”-curves at the bottom of Figures). % Activity is a measure of cell number as read out by cell-titer glo. 0 represents the CTG value at Day 0 and 100 represents the value of untreated growth at day 5.
The potential efficacy of adding a MAPK pathway inhibitor such as Compound B to a third-generation EGFR tyrosine kinase inhibitor such as EGF816 in EGFR mutant NSCLC was assessed as follows. A panel of EGFR mutant NSCLC cell lines was treated with a fixed dose (300 nM) of
EGF816 (“Compound A”) or DMSO in combination with Compound B across a 10-dose range for 5 days.
PC9, HCC827, HCC4006, NCI-H1975 and MGH707 are all EGFR mutant NSCLC cell lines sensitive to EGF816. PC9, HCC827, HCC4006 and NCI-H1975 were obtained from the cancer cell line encyclopedia (CCLE) database. MGH707 were obtained from Massachusetts General Hospital. All cell lines were maintained in RMPI media supplemented with 10% fetal bovine serum.
Compound A (EGF816) and Compound B were all re-suspended in DMSO at a concentration of 10 mM for a stock solution and further diluted for the experiments as indicated.
The following EGFR mutant (EGFR mt) NSCLC cell lines were plated at the following densities: HCC827 (exon 19 deletion, or ex19del for short) (500/well), HCC4006 (ex19del) (500/well), PC9 (ex19del)(500/well), and MGH707 parental (1000/well) into white 384-well plates (#3707, Corning, Oneonta, N.Y., USA) and stored in an incubator overnight at 37° C., 95% relative humidity, and 5% CO2. Compounds were serial diluted (1:3 dilution) in DMSO in an acoustic plate (#P-05525, Labcyte, San Jose, Calif., USA) using a Biomek liquid handler (Beckman, Indianapolis, Ind., USA). Compound A was dispensed into the first row of a Labcyte P-05525 source plate. The compound plates were then used to deliver combinations to assay plates using an acoustic dispenser (Echo-555, Labcyte, San Jose, Calif., USA). Each dispense was 50 nL which achieved a 1:1000 dilution (ie. 50 nL dispense of a 10 mM compound becomes 10 uM in 50 uL of cell solution). The combination treatment included a second dispense of 50 nL of Compound A to achieve a final concentration of 0.3 uM. Upon completion of dosing each assay plate was returned to an incubator (37° C., 95% relative humidity, and 5% CO2). 25 uL/well of CellTiter-Glo One Solution cell viability reagent (#G8462, Promega, Madison, Wis., USA) was added to an untreated plate of each cell line using a bulk dispenser (EL406, Biotek, Winooski, Vt., USA) and after 20 minutes of incubation at room temperature, the plates were read on a microplate reader (Envision, Perkin Elmer, Hopkington, Mass., USA). […] After 5 days of incubation, the assay plates are read using the same CellTiter-Glo assay reagent and read on the Envision microplate reader.

[2] = tested on: advanced non-small cell lung cancer (NSCLC) harboring T790M; conditions: cited from earlier work
EGFR-mutant NSCLC = experiment: Previous study of EGF816 at 100 mg and 150 mg daily; type: in vivo, human; conditions: 100 mg daily compared with 150 mg daily
wild-type (WT) EGFR [3] = molecular target: T1, wild-type (WT) EGFR (Homo sapiens, UniProt P00533); experiment: Inhibition of wild-type EGFR by Compound A; conditions: at clinically relevant efficacious concentrations
xenograft models = experiment: Xenograft models, Compound A; type: in vivo
wild-type (WT) EGFR [4] = molecular target: T1, wild-type (WT) EGFR; conditions: cited from earlier work
[5] = tested on: EGFR mutant (L858R, ex19del and T790M) cancer models; experiment: EGFR mutant cancer models (in vitro and in vivo), Compound A
[6] = tested on: EGFR mutant NSCLC cell lines HCC4006, HCC827, PC9, MGH707; experiment: Long-term viability assay (confluence, 14 days); type: cell-based
Method: FIG. 2A and FIG. 2B: Dose response of Compound B (“Cmpd B”) in EGFR mutant NSCLC lines in combination with Compound A (EGF816) (“Cmpd A”) (300 nM) (FIG. 2A: HCC4006 and HCC827 cell lines. FIG. 2B: PC9 and MGH707 cell lines). Cells were treated with fresh drug and imaged for confluence measurement twice per week for two weeks. Cell confluence was used as a surrogate for cell number. It is shown that a Raf-inhibitor in combination with EGF816 slows drug-tolerant cell outgrowth.
Combinations of Compound A and Compound B were further examined in long-term drug combination growth assays. The same EGFR mutant NSCLC cell lines as were used in Example 1 above were treated with EGF816 alone or EGF816 in combination with Compound B across a 5-dose range for 14 days as follows.
PC9 (6000/well), HCC827 (4000/well), HCC4006 (5000/well), and MGH707 (5000/well) cells were plated into 96-well plates and the following day treated with EGF816 (300 nM) +either DMSO or a range of doses of either Compound B (0.03, 0.1, 0.3, 1 and 3 uM) for two weeks. Drug was refreshed twice per week. Cell confluence was used as a surrogate for cell number and was measured by an incucyte zoom at t=0, 4, 7, 10 and 14 days treatment.

[7] = tested on: EGFR activating and acquired resistance mutants (L858R, ex19del and T790M); conditions: cited from earlier work
[8] = tested on: Calu-6 (KRAS Q61K), NCI-H358 (KRAS G12C), Hey-A8 (KRAS G12D, BRAF G464E), SK-MEL-30 xenografts; experiment: In vivo tumor xenografts, Compound B
456 kinases = experiment: Kinase binding selectivity panel; conditions: out of 456 kinases tested
BRAF kinase = BRAF kinase (Homo sapiens, UniProt P15056); experiment: BRAF kinase inhibition; type: biochemical
[9] = tested on: cell lines that have wild-type BRAF and RAS; experiment: Anti-proliferative activity in wild-type BRAF and RAS cell lines; type: cell-based; conditions: Homo sapiens, read-out: IC50, inhibition of proliferation
CYP3A4/5 = CYP3A4/5 inhibition; type: in vitro ADME
[10] = Anti-proliferative activity in cancer cell lines with MAPK-activating mutations; type: cell-based; conditions: Homo sapiens; range over A-375, A-375 with BRAFi/MEKi resistance alleles, MEL-JUSO, IPC-298, Calu-6; read-out: IC50, inhibition of proliferation

T1 sequence (P00533 25-1210): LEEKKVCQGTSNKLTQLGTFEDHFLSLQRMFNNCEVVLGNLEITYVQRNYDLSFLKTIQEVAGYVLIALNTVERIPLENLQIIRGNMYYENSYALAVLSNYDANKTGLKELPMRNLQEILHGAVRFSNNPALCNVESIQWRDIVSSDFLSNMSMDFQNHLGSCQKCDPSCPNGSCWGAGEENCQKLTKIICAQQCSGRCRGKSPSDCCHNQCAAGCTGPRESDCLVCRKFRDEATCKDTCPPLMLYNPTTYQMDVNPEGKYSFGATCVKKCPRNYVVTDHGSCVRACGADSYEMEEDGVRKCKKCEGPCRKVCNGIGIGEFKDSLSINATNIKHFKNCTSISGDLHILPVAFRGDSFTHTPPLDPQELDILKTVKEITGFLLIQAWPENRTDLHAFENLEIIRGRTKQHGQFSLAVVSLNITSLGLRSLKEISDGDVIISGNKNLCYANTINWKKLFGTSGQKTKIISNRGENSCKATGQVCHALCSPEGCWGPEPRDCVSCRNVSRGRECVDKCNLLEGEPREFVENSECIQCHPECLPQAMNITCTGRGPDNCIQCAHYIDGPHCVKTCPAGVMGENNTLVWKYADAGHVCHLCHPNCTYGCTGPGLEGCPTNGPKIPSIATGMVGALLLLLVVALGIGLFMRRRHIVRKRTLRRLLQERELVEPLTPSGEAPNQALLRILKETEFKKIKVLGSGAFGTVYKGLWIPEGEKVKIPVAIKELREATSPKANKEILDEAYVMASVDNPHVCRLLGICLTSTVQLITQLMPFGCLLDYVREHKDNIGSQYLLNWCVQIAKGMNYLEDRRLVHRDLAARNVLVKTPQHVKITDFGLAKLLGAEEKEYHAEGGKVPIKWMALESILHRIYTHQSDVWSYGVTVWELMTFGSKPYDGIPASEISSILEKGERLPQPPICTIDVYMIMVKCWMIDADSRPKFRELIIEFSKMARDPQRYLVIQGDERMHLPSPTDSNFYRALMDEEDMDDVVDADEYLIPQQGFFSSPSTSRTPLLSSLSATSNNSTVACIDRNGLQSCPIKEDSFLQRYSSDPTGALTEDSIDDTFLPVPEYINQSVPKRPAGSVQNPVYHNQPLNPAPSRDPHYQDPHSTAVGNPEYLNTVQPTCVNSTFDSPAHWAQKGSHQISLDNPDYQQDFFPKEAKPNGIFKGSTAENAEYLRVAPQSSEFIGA
BRAF kinase, sequence (P15056 whole entry): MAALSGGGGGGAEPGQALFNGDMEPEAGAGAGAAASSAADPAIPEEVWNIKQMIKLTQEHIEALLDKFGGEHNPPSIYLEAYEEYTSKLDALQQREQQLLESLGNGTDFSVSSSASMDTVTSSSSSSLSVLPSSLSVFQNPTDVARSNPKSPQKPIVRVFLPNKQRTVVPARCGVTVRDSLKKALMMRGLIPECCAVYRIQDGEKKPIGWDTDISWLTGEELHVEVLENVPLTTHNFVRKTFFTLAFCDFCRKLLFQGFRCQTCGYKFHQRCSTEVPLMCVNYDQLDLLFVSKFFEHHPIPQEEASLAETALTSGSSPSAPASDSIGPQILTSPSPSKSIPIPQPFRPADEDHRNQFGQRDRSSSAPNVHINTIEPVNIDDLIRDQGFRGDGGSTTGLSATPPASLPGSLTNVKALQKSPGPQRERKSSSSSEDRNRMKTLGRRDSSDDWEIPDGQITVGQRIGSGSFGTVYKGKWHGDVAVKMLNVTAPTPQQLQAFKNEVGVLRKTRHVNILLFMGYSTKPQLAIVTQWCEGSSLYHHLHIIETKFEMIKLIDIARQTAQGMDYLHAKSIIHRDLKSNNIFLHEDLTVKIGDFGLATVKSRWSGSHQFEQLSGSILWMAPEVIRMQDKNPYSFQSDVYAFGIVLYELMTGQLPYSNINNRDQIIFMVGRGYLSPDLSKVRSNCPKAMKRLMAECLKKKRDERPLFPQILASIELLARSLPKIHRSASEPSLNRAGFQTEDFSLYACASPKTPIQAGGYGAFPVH

Cc1cc(C(=O)Nc2nc3cccc(Cl)c3n2[C@@H]2CCCCN(C(=O)/C=C/CN(C)C)C2)ccn1 [Compound A, (R,E)-N-(7-chloro-1-(1-(4-(dimethylamino)but-2-enoyl)azepan-3-yl)-1H-benzo[d]imidazol-2-yl)-2-methylisonicotinamide]
cell growth (% Activity, cell-titer glo) ([1]; EGF816 alone 300 nM, 5 days, all cell lines): robust growth suppression | antitumor activity in patients [2]: durable antitumor activity | overall response rates (EGFR-mutant NSCLC): similar | rates of rash and diarrhoea (EGFR-mutant NSCLC): lower rates of rash and diarrhoea | WT EGFR inhibition (wild-type (WT) EGFR [3]): no indication of WT EGFR inhibition | tolerability / body weight (xenograft models; at efficacious doses): well tolerated with no body weight loss | anti-tumor efficacy (xenograft models; several xenograft models): Dose-dependent anti-tumor efficacy | effect on wild-type EGFR (wild-type (WT) EGFR [4]): sparing | efficacy in EGFR mutant cancer models [5]: significant efficacy | sensitivity to single agent EGF816 ([6]; 300 nM EGF816 alone, PC9): more exquisitely sensitive | inhibition of EGFR mutants [7]: selectively inhibits

Cc1ccc(NC(=O)c2ccnc(C(F)(F)F)c2)cc1-c1cc(OCCO)nc(N2CCOCC2)c1 [Compound B, N-(3-(2-(2-hydroxyethoxy)-6-morpholinopyridin-4-yl)-4-methylphenyl)-2-(trifluoromethyl)isonicotinamide]
tumor response ([8]; KRAS-mutant Calu-6, NCI-H358, Hey-A8 and NRAS-mutant SK-MEL-30 xenografts): tumor regression | dose dependence of anti-tumor effects ([8]; in all cases): dose-dependent | tolerability / body weight ([8]; in all cases): well tolerated with minimal body weight loss | number of other kinases whose binding is inhibited to a similar degree (456 kinases): 2 | cell growth (% Activity, cell-titer glo) ([1]; Compound B added to 300 nM EGF816, 5 days, HCC4006, HCC827 and PC9): enhanced suppression of cell growth | cell growth (% Activity, cell-titer glo) ([1]; Compound B added to 300 nM EGF816, 5 days, MGH707): less effective | cell growth (% Activity, cell-titer glo) ([1]; Compound B single agent (DMSO), 5 days, all cell lines): suppressed | sensitization to Compound B by EGF816 ([1]; with 300 nM EGF816 compared to single agent, HCC4006, HCC827 and PC9): active at lower doses | IC50 (BRAF kinase): 0.73 nM | IC50 [9]: > 20000 nM | residual outgrowth of EGFR mutant persister cells (cell confluence) ([6]; Compound B 0.03-3 uM with 300 nM EGF816, 14 days): markedly suppressed | response to the combination (cell confluence) ([6]; Compound B with 300 nM EGF816, 14 days, MGH707): most refractory | cell number (cell confluence) ([6]; Compound B with 300 nM EGF816, 14 days, PC9): more pronounced drop in cell number | CYP3A4/5 inhibition (CYP3A4/5): inhibitor of CYP3A4/5 | IC50 [10]: 200 to 1200 nM

— US20200237773A1, “THERAPEUTIC COMBINATION OF A THIRD-GENERATION EGFR TYROSINE KINASE INHIBITOR AND A RAF INHIBITOR” (Novartis AG, priority 2017, published 2020)
